Laboratory results published in US20090123389A1, “Methods for modulating Th17 cell development in the treatment and prevention of cellulite” (priority 2007, published 2009).

Tests used:
CD4+ CD25− T cells = experiment: DNA microarray transcriptional profile of T cells activated in Th17-priming conditions; assay type: cell-based, mouse; settings: 10 nM, Th17-priming conditions
[1] = system: radiation induced fibrosis; settings: IP, 1-5 μg/mouse; cited from earlier work

## O=C(CC1NCCCC1O)Cn1cnc2cc(Br)c(Cl)cc2c1=O (racemic) [HF, 7-bromo-6-chloro-3-[3-(3-hydroxy-2-piperidinyl)-2-oxopropyl]-4(3H)-quinazolinone]
CD4+ CD25− T cells; 3 hr
  Vegfa transcript fold increase, HF vs. MAZ1310: 3.2 ± 0.2 fold
  Xist transcript fold increase, HF vs. MAZ1310: 3.5 ± 1.7 fold
CD4+ CD25− T cells; 6 hr
  Aars transcript fold increase, HF vs. MAZ1310: 2.6 ± 0.2 fold
  Aff1 transcript fold increase, HF vs. MAZ1310: 2.6 ± 0.3 fold
  Aldh18a1 transcript fold increase, HF vs. MAZ1310: 2.7 ± 0.2 fold
  Asns transcript fold increase, HF vs. MAZ1310: 7.1 ± 0.5 fold
  Atf3 transcript fold increase, HF vs. MAZ1310: 3.2 ± 0.5 fold
  Atf5 transcript fold increase, HF vs. MAZ1310: 8.9 ± 1.0 fold
  Cars transcript fold increase, HF vs. MAZ1310: 2.2 ± 0.3 fold
  Cd274 transcript fold increase, HF vs. MAZ1310: 2.0 ± 0.1 fold
  Cebpb transcript fold increase, HF vs. MAZ1310: 8.0 ± 0.2 fold
  Cebpg transcript fold increase, HF vs. MAZ1310: 3.1 ± 0.5 fold
  Chd2 transcript fold increase, HF vs. MAZ1310: 2.5 ± 0.5 fold
  Cldn12 transcript fold increase, HF vs. MAZ1310: 4.6 ± 0.5 fold
  Clic4 transcript fold increase, HF vs. MAZ1310: 2.8 ± 0.2 fold
  Cth transcript fold increase, HF vs. MAZ1310: 16.0 ± 1.6 fold
  Cxcl10 transcript fold increase, HF vs. MAZ1310: 2.1 ± 0.1 fold
  Ddit3 transcript fold increase, HF vs. MAZ1310: 5.0 ± 0.7 fold
  Eif4Ebp1 transcript fold increase, HF vs. MAZ1310: 5.3 ± 0.3 fold
  Gpt2 transcript fold increase, HF vs. MAZ1310: 16.7 ± 2.2 fold
  Herpud1 transcript fold increase, HF vs. MAZ1310: 2.7 ± 0.1 fold
  Icam1 transcript fold increase, HF vs. MAZ1310: 2.8 ± 0.3 fold
  Irf1 transcript fold increase, HF vs. MAZ1310: 2.6 ± 0.2 fold
  Lars transcript fold increase, HF vs. MAZ1310: 2.1 ± 0.0 fold
  Mpa2l transcript fold increase, HF vs. MAZ1310: 7.3 ± 1.7 fold
  Ncoa7 transcript fold increase, HF vs. MAZ1310: 3.2 ± 0.5 fold
  Nfkbiz transcript fold increase, HF vs. MAZ1310: 1.9 ± 0.3 fold
  Pck2 transcript fold increase, HF vs. MAZ1310: 7.4 ± 0.9 fold
  Pdcd1lg2 transcript fold increase, HF vs. MAZ1310: 2.5 ± 0.3 fold
  Phgdh transcript fold increase, HF vs. MAZ1310: 4.2 ± 0.3 fold
  Psat1 transcript fold increase, HF vs. MAZ1310: 2.6 ± 0.0 fold
  Psph transcript fold increase, HF vs. MAZ1310: 3.4 ± 0.3 fold
  Pvr transcript fold increase, HF vs. MAZ1310: 2.0 ± 0.1 fold
  Pycr1 transcript fold increase, HF vs. MAZ1310: 6.6 ± 0.4 fold
  Pycs transcript fold increase, HF vs. MAZ1310: 2.3 ± 0.1 fold
  Sars1 transcript fold increase, HF vs. MAZ1310: 2.3 ± 0.1 fold
  Sesn2 transcript fold increase, HF vs. MAZ1310: 2.3 ± 0.2 fold
  Slamf7 transcript fold increase, HF vs. MAZ1310: 2.1 ± 0.2 fold
  Slc1a4 transcript fold increase, HF vs. MAZ1310: 4.6 ± 0.4 fold
  Slc5a9 transcript fold increase, HF vs. MAZ1310: 5.7 ± 0.6 fold
  Slc7a3 transcript fold increase, HF vs. MAZ1310: 6.5 ± 0.9 fold
  Slc14a1 transcript fold increase, HF vs. MAZ1310: 6.6 ± 0.4 fold
  Trib3 transcript fold increase, HF vs. MAZ1310: 18.5 ± 8.5 fold
  Trim12 transcript fold increase, HF vs. MAZ1310: 4.9 ± 0.7 fold
  Vegfa transcript fold increase, HF vs. MAZ1310: 5.8 ± 0.5 fold
  Xist transcript fold increase, HF vs. MAZ1310: 2.1 ± 0.7 fold
[1]
  radiation induced fibrosis: prevented radiation induced fibrosis
  toxic effect in mice: without evident toxic effect
